Data from patent US20020137929A1, “1 - (3-heterocyclylphenyl) isothiourea, -isourea, -guanidine and -amidine herbicidal agents” (Intellectual Property Department, BASF Aktiengesellschaft, priority 1998, published 2002).

Key:
[1] = system: IPOHE (Morningglory, Ivyleaf); assay: Preemergence herbicidal evaluation; format: in vivo, Ipomoea hederacea; conditions: rated 4-5 weeks after treatment
Procedure, shortened: (§1)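 Rating at 4–5 wk post-spray on a 0–9 visual scale vs control. Application: aqueous acetone, ~0.0156–0.500 kg/ha, to soil surface after seeding, preemergence.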

[2] = system: IPOHE (Morningglory, Ivyleaf); assay: Postemergence herbicidal evaluation; format: in vivo, Ipomoea hederacea; conditions: postemergence
Procedure, shortened: (§2)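 Visual 0-9 injury score (stand, vigor, malformation, size, chlorosis, appearance vs untreated) taken four to five weeks post-spray, averaged across repeat tests. Test plants about two weeks old; foliar spray of acetone/water (1:1) with 0.5% surfactant delivering ~0.0156-0.500 kg active/ha.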

ABUTH (Velvetleaf) [3] = assay: Preemergence herbicidal evaluation; format: in vivo, Abutilon theophrasti; conditions: rated 4-5 weeks after treatment
Procedure, shortened: as §1

ECHCG (Barnyardgrass) [4] = assay: Preemergence herbicidal evaluation; format: in vivo, Echinochloa crus-galli; conditions: rated 4-5 weeks after treatment
Procedure, shortened: as §1

ZEAMX (Corn, Field) [5] = assay: Postemergence herbicidal evaluation; format: in vivo, Zea mays; conditions: postemergence
Procedure, shortened: as §2

ZEAMX (Corn, Field) [6] = assay: Preemergence herbicidal evaluation; format: in vivo, Zea mays; conditions: rated 4-5 weeks after treatment
Procedure, shortened: as §1

[7] = system: CHEAL (Lambsquarters, Common); assay: Preemergence herbicidal evaluation; format: in vivo, Chenopodium album; conditions: rated 4-5 weeks after treatment
Procedure, shortened: as §1

ABUTH (Velvetleaf) [8] = assay: Postemergence herbicidal evaluation; format: in vivo, Abutilon theophrasti; conditions: postemergence
Procedure, shortened: as §2

SETVI (Foxtail, Green) = assay: Postemergence herbicidal evaluation; format: in vivo, Setaria viridis; conditions: postemergence
Procedure, shortened: as §2

[9] = system: CHEAL (Lambsquarters, Common); assay: Postemergence herbicidal evaluation; format: in vivo, Chenopodium album; conditions: postemergence
Procedure, shortened: as §2

[10] = system: TRZAWR (Wheat, Winter, cv Riband); assay: Preemergence herbicidal evaluation; format: in vivo, Triticum aestivum; conditions: rated 4-5 weeks after treatment
Procedure, shortened: as §1

ECHCG (Barnyardgrass) [11] = assay: Postemergence herbicidal evaluation; format: in vivo, Echinochloa crus-galli; conditions: postemergence
Procedure, shortened: as §2

ORYSAT (Rice, Tebonnet) = assay: Postemergence herbicidal evaluation; format: in vivo, Oryza sativa, (L.) Tebonnet; conditions: postemergence
Procedure, shortened: as §2

[12] = system: GLXMAW (Soybean, Williams); assay: Preemergence herbicidal evaluation; format: in vivo, Glycine max, (L.) Merr. cv Williams; conditions: rated 4-5 weeks after treatment
Procedure, shortened: as §1

CASOB (Sicklepod) = assay: Preemergence herbicidal evaluation; format: in vivo, Cassia obtusifolia; conditions: rated 4-5 weeks after treatment
Procedure, shortened: as §1

For `C=CCN1C(=O)C(CC(=O)NO)SC1=Nc1cc(-n2c(=O)cc(C(F)(F)F)n(C)c2=O)c(F)cc1Cl` (stereo not drawn) [Compound 161, 3-Allyl-2-{{2-chloro-5-[3,6-dihydro-3-methyl-2,6-dioxo-4-(trifluoromethyl)-1(2H)-pyrimidinyl]-4-fluorophenyl}imino}-4-oxo-5-thiazolidineacetohydroxamic acid], the “Preemergence herbicidal rating IPOHE” value ([1]; 0.0313 kg/ha) was 2.0, the “Preemergence herbicidal rating IPOHE” value ([1]; 0.0625 kg/ha) was 7.0 and the “Preemergence herbicidal rating IPOHE” value ([1]; 0.1250 kg/ha) was 9.0. For the same molecule, the “Preemergence herbicidal rating IPOHE” value ([1]; 0.2500 kg/ha) was 9.0, the “Preemergence herbicidal rating IPOHE” value ([1]; 0.5000 kg/ha) was 9.0 and the “herbicidal rating IPOHE” value ([2]; rate 0.0156 kg/ha) was 1.0. For the same molecule, the “herbicidal rating IPOHE” value ([2]; rate 0.0313 kg/ha) was 3.0, the “herbicidal rating IPOHE” value ([2]; rate 0.0625 kg/ha) was 9.0 and the “herbicidal rating IPOHE” value ([2]; rate 0.1250 kg/ha) was 9.0. The “Preemergence herbicidal rating ABUTH” value (ABUTH (Velvetleaf) [3]; 0.0156 kg/ha) was 0.0, the “Preemergence herbicidal rating ABUTH” value (ABUTH (Velvetleaf) [3]; 0.0313 kg/ha) was 1.0 and the “Preemergence herbicidal rating ABUTH” value (ABUTH (Velvetleaf) [3]; 0.0625 kg/ha) was 2.0. The “Preemergence herbicidal rating ABUTH” value (ABUTH (Velvetleaf) [3]; 0.1250 kg/ha) was 9.0, the “Preemergence herbicidal rating ABUTH” value (ABUTH (Velvetleaf) [3]; 0.2500 kg/ha) was 9.0 and the “Preemergence herbicidal rating ABUTH” value (ABUTH (Velvetleaf) [3]; 0.5000 kg/ha) was 9.0. For the same molecule, the “Preemergence herbicidal rating ECHCG” value (ECHCG (Barnyardgrass) [4]; 0.0156 kg/ha) was 0.0, the “Preemergence herbicidal rating ECHCG” value (ECHCG (Barnyardgrass) [4]; 0.0313 kg/ha) was 0.0 and the “Preemergence herbicidal rating ECHCG” value (ECHCG (Barnyardgrass) [4]; 0.0625 kg/ha) was 0.0. For the same molecule, the “Preemergence herbicidal rating ECHCG” value (ECHCG (Barnyardgrass) [4]; 0.1250 kg/ha) was 4.0, the “Preemergence herbicidal rating ECHCG” value (ECHCG (Barnyardgrass) [4]; 0.2500 kg/ha) was 7.0 and the “Preemergence herbicidal rating ECHCG” value (ECHCG (Barnyardgrass) [4]; 0.5000 kg/ha) was 9.0. For the same molecule, the “herbicidal rating ZEAMX” value (ZEAMX (Corn, Field) [5]; rate 0.0156 kg/ha) was 4.5, the “herbicidal rating ZEAMX” value (ZEAMX (Corn, Field) [5]; rate 0.0313 kg/ha) was 6.5 and the “herbicidal rating ZEAMX” value (ZEAMX (Corn, Field) [5]; rate 0.0625 kg/ha) was 7.0. The “herbicidal rating ZEAMX” value (ZEAMX (Corn, Field) [5]; rate 0.1250 kg/ha) was 7.5, the “Preemergence herbicidal rating ZEAMX” value (ZEAMX (Corn, Field) [6]; 0.0156 kg/ha) was 0.0 and the “Preemergence herbicidal rating ZEAMX” value (ZEAMX (Corn, Field) [6]; 0.0313 kg/ha) was 0.0. For the same molecule, the “Preemergence herbicidal rating ZEAMX” value (ZEAMX (Corn, Field) [6]; 0.0625 kg/ha) was 1.0, the “Preemergence herbicidal rating ZEAMX” value (ZEAMX (Corn, Field) [6]; 0.1250 kg/ha) was 5.0 and the “Preemergence herbicidal rating ZEAMX” value (ZEAMX (Corn, Field) [6]; 0.2500 kg/ha) was 6.0. For the same molecule, the “Preemergence herbicidal rating ZEAMX” value (ZEAMX (Corn, Field) [6]; 0.5000 kg/ha) was 9.0, the “Preemergence herbicidal rating CHEAL” value ([7]; 0.0156 kg/ha) was 6.0 and the “Preemergence herbicidal rating CHEAL” value ([7]; 0.0313 kg/ha) was 7.0. The “Preemergence herbicidal rating CHEAL” value ([7]; 0.0625 kg/ha) was 9.0, the “Preemergence herbicidal rating CHEAL” value ([7]; 0.1250 kg/ha) was 9.0 and the “Preemergence herbicidal rating CHEAL” value ([7]; 0.2500 kg/ha) was 9.0. For the same molecule, the “Preemergence herbicidal rating CHEAL” value ([7]; 0.5000 kg/ha) was 9.0, the “herbicidal rating ABUTH” value (ABUTH (Velvetleaf) [8]; rate 0.0156 kg/ha) was 0.0 and the “herbicidal rating ABUTH” value (ABUTH (Velvetleaf) [8]; rate 0.0313 kg/ha) was 5.0. For the same molecule, the “herbicidal rating ABUTH” value (ABUTH (Velvetleaf) [8]; rate 0.0625 kg/ha) was 7.0, the “herbicidal rating ABUTH” value (ABUTH (Velvetleaf) [8]; rate 0.1250 kg/ha) was 9.0 and the “herbicidal rating SETVI” value (SETVI (Foxtail, Green); rate 0.0156 kg/ha) was 0.0. For the same molecule, the “herbicidal rating SETVI” value (SETVI (Foxtail, Green); rate 0.0313 kg/ha) was 1.0, the “herbicidal rating SETVI” value (SETVI (Foxtail, Green); rate 0.0625 kg/ha) was 7.0 and the “herbicidal rating SETVI” value (SETVI (Foxtail, Green); rate 0.1250 kg/ha) was 7.0. For the same molecule, the “herbicidal rating CHEAL” value ([9]; rate 0.0156 kg/ha) was 1.0, the “herbicidal rating CHEAL” value ([9]; rate 0.0313 kg/ha) was 5.0 and the “herbicidal rating CHEAL” value ([9]; rate 0.0625 kg/ha) was 7.0. The “herbicidal rating CHEAL” value ([9]; rate 0.1250 kg/ha) was 9.0, the “Preemergence herbicidal rating TRZAWR” value ([10]; 0.0156 kg/ha) was 0.0 and the “Preemergence herbicidal rating TRZAWR” value ([10]; 0.0313 kg/ha) was 0.0. The “Preemergence herbicidal rating TRZAWR” value ([10]; 0.0625 kg/ha) was 1.0, the “Preemergence herbicidal rating TRZAWR” value ([10]; 0.1250 kg/ha) was 4.0 and the “Preemergence herbicidal rating TRZAWR” value ([10]; 0.2500 kg/ha) was 7.0. The “Preemergence herbicidal rating TRZAWR” value ([10]; 0.5000 kg/ha) was 9.0, the “herbicidal rating ECHCG” value (ECHCG (Barnyardgrass) [11]; rate 0.0156 kg/ha) was 0.0 and the “herbicidal rating ECHCG” value (ECHCG (Barnyardgrass) [11]; rate 0.0313 kg/ha) was 0.0. For the same molecule, the “herbicidal rating ECHCG” value (ECHCG (Barnyardgrass) [11]; rate 0.0625 kg/ha) was 4.0, the “herbicidal rating ECHCG” value (ECHCG (Barnyardgrass) [11]; rate 0.1250 kg/ha) was 4.0 and the “herbicidal rating ORYSAT” value (ORYSAT (Rice, Tebonnet); rate 0.0156 kg/ha) was 2.5. The “herbicidal rating ORYSAT” value (ORYSAT (Rice, Tebonnet); rate 0.0313 kg/ha) was 3.0, the “herbicidal rating ORYSAT” value (ORYSAT (Rice, Tebonnet); rate 0.0625 kg/ha) was 3.5 and the “herbicidal rating ORYSAT” value (ORYSAT (Rice, Tebonnet); rate 0.1250 kg/ha) was 3.5. The “Preemergence herbicidal rating GLXMAW” value ([12]; 0.0156 kg/ha) was 0.0, the “Preemergence herbicidal rating GLXMAW” value ([12]; 0.0313 kg/ha) was 1.0 and the “Preemergence herbicidal rating GLXMAW” value ([12]; 0.0625 kg/ha) was 1.0. The “Preemergence herbicidal rating GLXMAW” value ([12]; 0.1250 kg/ha) was 7.0, the “Preemergence herbicidal rating GLXMAW” value ([12]; 0.2500 kg/ha) was 9.0 and the “Preemergence herbicidal rating GLXMAW” value ([12]; 0.5000 kg/ha) was 9.0. The “Preemergence herbicidal rating CASOB” value (CASOB (Sicklepod); 0.0156 kg/ha) was 0.0, the “Preemergence herbicidal rating CASOB” value (CASOB (Sicklepod); 0.0313 kg/ha) was 0.0 and the “Preemergence herbicidal rating CASOB” value (CASOB (Sicklepod); 0.0625 kg/ha) was 1.0. The “Preemergence herbicidal rating CASOB” value (CASOB (Sicklepod); 0.1250 kg/ha) was 9.0, the “Preemergence herbicidal rating CASOB” value (CASOB (Sicklepod); 0.2500 kg/ha) was 9.0 and the “Preemergence herbicidal rating CASOB” value (CASOB (Sicklepod); 0.5000 kg/ha) was 9.0.
